Key:
[1] = target: Receptor tyrosine-protein kinase erbB-4 (Homo sapiens, UniProt Q15303); experiment: Inhibition of recombinant human N-terminal GST-tagged ERBB4 catalytic domain (708 to 993 residues) expressed in baculovirus expression system using tyrosine-1 peptide as substrate incubated for 60 mins in presence of ATP by Z'-LYTE assay
[2] = target: Casein kinase I isoform epsilon (Homo sapiens, UniProt P49674); experiment: Inhibition of recombinant human full-length GST-tagged CSNK1E expressed in insect cells using FRET-labeled Ser/Thr 11 peptide as substrate measured after 1 hr in presence of ATP by Z'-lyte assay
[3] = target: Tyrosine-protein kinase JAK2 (Homo sapiens, UniProt O60674, V617F); experiment: Inhibition of human recombinant GST tagged JAK2 V617F mutant catalytic domain expressed in baculovirus expression system using Tyr6 peptide as substrate measured after 1 hr in presence of ATP by Z'-LYTE assay
[4] = target: Protein kinase C beta type (Homo sapiens, UniProt P05771); experiment: Inhibition of recombinant full length human GST-tagged PKCbeta2 expressed in insect expression system using serine/threonine-7 peptide as substrate incubated for 60 mins in presence of ATP by Z'-LYTE assay
[5] = target: Calcitonin gene-related peptide type 1 receptor (Homo sapiens) (UniProt Q16602); experiment: Inhibition of human AM1 receptor at 10 uM relative to control
[6] = target: Mitogen-activated protein kinase 9 (Homo sapiens, UniProt P45984); experiment: Inhibition of recombinant full length human His-tagged JNK2 expressed in baculovirus expression system using serine/threonine-4 peptide as substrate incubated for 60 mins in presence of ATP by Z'-LYTE assay
[7] = target: Retinoic acid receptor RXR-alpha (Homo sapiens) (UniProt P19793); experiment: Displacement of [3H]-9-cis-Retinoic acid from human recombinant RXRalpha receptor LBD domain expressed in Escherichia coli at 10 uM measured after 16 hrs by radiometric scintillation analysis relative to control
[8] = target: C-C chemokine receptor type 1 (Homo sapiens) (UniProt P32246); experiment: Displacement of [125I]MIP-1alpha from recombinant full length human recombinant CCR1 expressed in Chem2 cells at 10 uM measured after 3 hrs by radiometric scintillation analysis relative to control; assay type: cell-based
[9] = target: G protein-coupled receptor kinase 5 (Homo sapiens, UniProt P34947); experiment: Inhibition of recombinant full length human GST-tagged GRK5 expressed in baculovirus expression system using serine/threonine-16 peptide as substrate incubated for 60 mins in presence of ATP by Z'-LYTE assay
[10] = target: Serine/threonine-protein kinase PLK2 (Homo sapiens, UniProt Q9NYY3); experiment: Inhibition of recombinant full length human GST-tagged PLK2 expressed in baculovirus expression system using serine/threonine-16 peptide as substrate incubated for 60 mins in presence of ATP by Z'-LYTE assay
[11] = target: Melanin-concentrating hormone receptor 1 (Homo sapiens) (UniProt Q99705); experiment: Displacement of [125I]Tyr-S36057 from full length human recombinant SLC1 receptor expressed in CHO-K1 cells at 10 uM measured after 120 mins by radiometric scintillation analysis relative to control; assay type: cell-based
[12] = target: Tyrosine-protein kinase Lck (Homo sapiens, UniProt P06239); experiment: Inhibition of recombinant full length human His-tagged LCK expressed in baculovirus expression system using tyrosine-2 peptide as substrate incubated for 60 mins in presence of ATP by Z'-LYTE assay
[13] = target: Alpha-1D adrenergic receptor (Homo sapiens) (UniProt P25100); experiment: Displacement of [3H]prazosin from recombinant full length human alpha1d adrenergic receptor expressed in HEK293 cell membranes at 10 uM measured after 60 mins by scintillation counting method relative to control
[14] = target: Cathepsin G (Homo sapiens) (UniProt P08311); experiment: Inhibition of endogenous human cathepsin G at 10 uM using Suc-Ala-Ala-Pro-Phe-AMC as substrate after 30 mins by spectrophotometric analysis relative to control
[15] = target: Mitogen-activated protein kinase 11 (Homo sapiens, UniProt Q15759); experiment: Inhibition of recombinant full length human His-tagged p38beta expressed in baculovirus expression system using serine/threonine-15 peptide as substrate incubated for 60 mins in presence of ATP by Z'-LYTE assay
[16] = target: Cannabinoid receptor 2 (Homo sapiens) (UniProt P34972); experiment: Displacement of [3H]WIN55212-2 from recombinant full length human recombinant CB2 receptor expressed in CHOK1 cells at 10 uM measured after 90 mins by radiometric scintillation analysis relative to control; assay type: cell-based; conditions: CHO-K1
[17] = target: Casein kinase I isoform gamma-3 (Homo sapiens, UniProt Q9Y6M4); experiment: Inhibition of recombinant human full-length GST-tagged CSNK1G3 expressed in baculovirus expression system using FRET-labeled Ser/Thr 05 peptide as substrate measured after 1 hr in presence of ATP by Z'-lyte assay
[18] = target: Glutamate NMDA receptor (Rattus norvegicus) (UniProt P35439+Q00959+Q00960+Q00961+Q62645+Q8VHN2+Q9R1M7); experiment: Displacement of [3H]Ifenprodil from in glutamate NMDA receptor polyamine binding site in Wistar rat cerebral cortex at 10 uM incubated for 120 mins by radiometric scintillation analysis relative to control
[19] = target: Rho-associated protein kinase 2 (Homo sapiens, UniProt O75116); experiment: Inhibition of recombinant human GST-tagged ROCK2 catalytic domain expressed in baculovirus expression system using serine/threonine-13 peptide as substrate incubated for 60 mins in presence of ATP by Z'-LYTE assay
[20] = target: Inhibitor of nuclear factor kappa-B kinase subunit epsilon (Homo sapiens, UniProt Q14164); experiment: Inhibition of recombinant human full-length GST-tagged IKBKE expressed in baculovirus expression system using Ser/Thr 11 peptide as substrate measured after 1 hr in presence of ATP by Z'-lyte assay
[21] = target: Hepatocyte growth factor receptor (Homo sapiens, UniProt P08581, M1250T); experiment: Inhibition of human recombinant His-tagged cMET M1250T mutant cytoplasmic domain expressed in baculovirus expression system using tyrosine 6 peptide as substrate after 60 mins in presence of ATP FRET based Z'-LYTE assay
[22] = target: Proto-oncogene tyrosine-protein kinase receptor Ret (Homo sapiens, UniProt P07949, Y791F); experiment: Inhibition of recombinant human GST-tagged RET Y791F mutant cytoplasmic domain expressed in baculovirus expression system using tyr02 peptide as substrate incubated for 60 mins in presence of ATP by Z'-LYTE assay
[23] = target: Calcium/calmodulin-dependent protein kinase type IV (Homo sapiens, UniProt Q16566); experiment: Inhibition of recombinant full length human full length GST-tagged CAMK4 expressed in Escherichia coli expression system using serine/threonine-13 peptide as substrate incubated for 60 mins in presence of ATP by Z'-LYTE assay
[24] = target: Voltage-dependent L-type calcium channel subunit alpha-1C (Homo sapiens, UniProt Q13936); experiment: Inhibition of Cav1.2 (unknown origin)
[25] = Unbound clearance in rat at 0.5 mg/kg, iv or 1 mg/kg, po; assay type: ADME, organism-based; conditions: in vivo

Chain of Retinoic acid receptor RXR-alpha (Homo sapiens) (P19793 whole entry, the tested form may be a part): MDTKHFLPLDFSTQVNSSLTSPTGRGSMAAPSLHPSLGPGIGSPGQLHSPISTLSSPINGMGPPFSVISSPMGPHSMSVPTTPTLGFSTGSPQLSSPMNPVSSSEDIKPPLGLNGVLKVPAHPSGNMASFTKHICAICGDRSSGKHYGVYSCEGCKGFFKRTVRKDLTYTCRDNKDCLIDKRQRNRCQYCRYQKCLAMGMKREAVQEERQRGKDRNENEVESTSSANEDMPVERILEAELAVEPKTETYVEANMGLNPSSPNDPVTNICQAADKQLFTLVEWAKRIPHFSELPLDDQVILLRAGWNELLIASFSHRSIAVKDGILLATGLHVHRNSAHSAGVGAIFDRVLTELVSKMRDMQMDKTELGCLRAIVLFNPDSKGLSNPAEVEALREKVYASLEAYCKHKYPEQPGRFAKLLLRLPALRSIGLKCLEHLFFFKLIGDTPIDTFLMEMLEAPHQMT
Chain of Mitogen-activated protein kinase 9 (P45984 whole entry, the tested form may be a part): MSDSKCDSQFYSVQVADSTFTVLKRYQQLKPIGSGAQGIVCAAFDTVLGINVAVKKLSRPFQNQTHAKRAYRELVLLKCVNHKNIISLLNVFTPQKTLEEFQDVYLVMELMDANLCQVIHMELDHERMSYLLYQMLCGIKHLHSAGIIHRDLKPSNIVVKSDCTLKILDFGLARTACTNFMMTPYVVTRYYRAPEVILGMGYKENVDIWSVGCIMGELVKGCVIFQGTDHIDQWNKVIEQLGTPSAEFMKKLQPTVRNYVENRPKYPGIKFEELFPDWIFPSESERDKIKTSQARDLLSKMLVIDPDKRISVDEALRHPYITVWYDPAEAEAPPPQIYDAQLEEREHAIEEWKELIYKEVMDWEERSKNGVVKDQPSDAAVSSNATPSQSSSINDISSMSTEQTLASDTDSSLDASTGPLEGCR
Chain of C-C chemokine receptor type 1 (Homo sapiens) (P32246 whole entry): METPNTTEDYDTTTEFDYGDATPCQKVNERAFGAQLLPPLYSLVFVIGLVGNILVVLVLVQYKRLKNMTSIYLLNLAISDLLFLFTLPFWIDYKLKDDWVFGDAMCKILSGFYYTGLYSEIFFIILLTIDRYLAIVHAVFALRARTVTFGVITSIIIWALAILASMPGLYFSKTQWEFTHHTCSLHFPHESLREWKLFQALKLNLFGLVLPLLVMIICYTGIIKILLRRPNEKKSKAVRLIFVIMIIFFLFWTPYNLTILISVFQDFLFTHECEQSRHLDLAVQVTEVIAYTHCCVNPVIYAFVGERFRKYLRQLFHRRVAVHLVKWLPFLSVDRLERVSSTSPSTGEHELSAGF
Chain of Tyrosine-protein kinase JAK2 (O60674 whole entry V617F, the tested form may be a part): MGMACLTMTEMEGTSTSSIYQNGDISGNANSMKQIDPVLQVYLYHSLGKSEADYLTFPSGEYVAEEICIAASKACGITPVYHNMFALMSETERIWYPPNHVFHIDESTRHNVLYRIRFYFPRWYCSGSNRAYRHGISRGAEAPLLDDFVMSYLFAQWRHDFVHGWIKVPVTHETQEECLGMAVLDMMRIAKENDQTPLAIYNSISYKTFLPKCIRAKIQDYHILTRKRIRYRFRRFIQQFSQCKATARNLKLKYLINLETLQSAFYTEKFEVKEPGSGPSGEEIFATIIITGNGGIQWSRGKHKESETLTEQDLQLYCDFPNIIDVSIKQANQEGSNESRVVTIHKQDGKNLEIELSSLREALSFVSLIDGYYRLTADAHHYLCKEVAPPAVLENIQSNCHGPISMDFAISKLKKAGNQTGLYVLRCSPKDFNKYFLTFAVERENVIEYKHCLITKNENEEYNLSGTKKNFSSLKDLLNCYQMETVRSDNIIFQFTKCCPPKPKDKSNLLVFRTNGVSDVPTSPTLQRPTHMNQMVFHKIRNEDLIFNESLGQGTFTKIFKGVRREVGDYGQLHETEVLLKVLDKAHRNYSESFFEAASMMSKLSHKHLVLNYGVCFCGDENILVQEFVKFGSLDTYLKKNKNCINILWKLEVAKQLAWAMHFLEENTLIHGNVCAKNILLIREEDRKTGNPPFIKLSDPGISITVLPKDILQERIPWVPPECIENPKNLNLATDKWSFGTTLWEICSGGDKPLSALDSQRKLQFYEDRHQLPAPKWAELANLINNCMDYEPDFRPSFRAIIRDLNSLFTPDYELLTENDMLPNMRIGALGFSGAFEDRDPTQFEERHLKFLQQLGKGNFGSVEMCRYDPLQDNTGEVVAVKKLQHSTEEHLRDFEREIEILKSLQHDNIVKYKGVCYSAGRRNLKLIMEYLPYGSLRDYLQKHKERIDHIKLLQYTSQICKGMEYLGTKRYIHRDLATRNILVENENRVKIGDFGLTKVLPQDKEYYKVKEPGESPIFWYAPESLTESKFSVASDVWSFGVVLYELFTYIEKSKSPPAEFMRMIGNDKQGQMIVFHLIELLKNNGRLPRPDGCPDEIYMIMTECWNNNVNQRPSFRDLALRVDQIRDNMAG
Chain of Alpha-1D adrenergic receptor (Homo sapiens) (P25100 whole entry): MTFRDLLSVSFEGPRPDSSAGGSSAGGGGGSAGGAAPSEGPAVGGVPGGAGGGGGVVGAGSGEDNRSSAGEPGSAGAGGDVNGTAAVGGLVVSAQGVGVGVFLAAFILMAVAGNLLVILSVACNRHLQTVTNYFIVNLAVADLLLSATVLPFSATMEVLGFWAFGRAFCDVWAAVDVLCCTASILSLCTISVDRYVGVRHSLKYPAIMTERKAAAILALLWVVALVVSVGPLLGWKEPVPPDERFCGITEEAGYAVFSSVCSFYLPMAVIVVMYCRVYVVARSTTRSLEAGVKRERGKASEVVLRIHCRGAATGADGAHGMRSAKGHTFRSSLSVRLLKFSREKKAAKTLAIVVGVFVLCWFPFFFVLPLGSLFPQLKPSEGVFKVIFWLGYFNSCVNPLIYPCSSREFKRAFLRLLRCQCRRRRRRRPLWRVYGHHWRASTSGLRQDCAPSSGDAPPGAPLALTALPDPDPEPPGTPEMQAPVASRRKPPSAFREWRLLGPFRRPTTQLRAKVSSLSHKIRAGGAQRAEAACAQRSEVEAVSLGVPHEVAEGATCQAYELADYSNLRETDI
Chain of Casein kinase I isoform gamma-3 (Q9Y6M4 whole entry, canonical isoform): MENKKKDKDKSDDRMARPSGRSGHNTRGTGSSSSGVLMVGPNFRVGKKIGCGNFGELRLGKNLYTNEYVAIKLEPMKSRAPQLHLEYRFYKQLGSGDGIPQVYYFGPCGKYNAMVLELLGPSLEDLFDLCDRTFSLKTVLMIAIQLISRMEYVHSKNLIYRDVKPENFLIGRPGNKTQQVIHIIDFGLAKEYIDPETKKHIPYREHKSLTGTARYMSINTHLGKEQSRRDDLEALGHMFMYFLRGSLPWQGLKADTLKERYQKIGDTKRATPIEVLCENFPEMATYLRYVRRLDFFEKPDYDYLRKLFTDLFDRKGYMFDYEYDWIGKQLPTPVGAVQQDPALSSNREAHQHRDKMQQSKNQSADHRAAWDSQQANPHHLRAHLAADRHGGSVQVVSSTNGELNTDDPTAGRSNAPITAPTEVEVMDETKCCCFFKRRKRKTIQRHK
Chain of Receptor tyrosine-protein kinase erbB-4 (Q15303 whole entry, the tested form may be a part, canonical isoform): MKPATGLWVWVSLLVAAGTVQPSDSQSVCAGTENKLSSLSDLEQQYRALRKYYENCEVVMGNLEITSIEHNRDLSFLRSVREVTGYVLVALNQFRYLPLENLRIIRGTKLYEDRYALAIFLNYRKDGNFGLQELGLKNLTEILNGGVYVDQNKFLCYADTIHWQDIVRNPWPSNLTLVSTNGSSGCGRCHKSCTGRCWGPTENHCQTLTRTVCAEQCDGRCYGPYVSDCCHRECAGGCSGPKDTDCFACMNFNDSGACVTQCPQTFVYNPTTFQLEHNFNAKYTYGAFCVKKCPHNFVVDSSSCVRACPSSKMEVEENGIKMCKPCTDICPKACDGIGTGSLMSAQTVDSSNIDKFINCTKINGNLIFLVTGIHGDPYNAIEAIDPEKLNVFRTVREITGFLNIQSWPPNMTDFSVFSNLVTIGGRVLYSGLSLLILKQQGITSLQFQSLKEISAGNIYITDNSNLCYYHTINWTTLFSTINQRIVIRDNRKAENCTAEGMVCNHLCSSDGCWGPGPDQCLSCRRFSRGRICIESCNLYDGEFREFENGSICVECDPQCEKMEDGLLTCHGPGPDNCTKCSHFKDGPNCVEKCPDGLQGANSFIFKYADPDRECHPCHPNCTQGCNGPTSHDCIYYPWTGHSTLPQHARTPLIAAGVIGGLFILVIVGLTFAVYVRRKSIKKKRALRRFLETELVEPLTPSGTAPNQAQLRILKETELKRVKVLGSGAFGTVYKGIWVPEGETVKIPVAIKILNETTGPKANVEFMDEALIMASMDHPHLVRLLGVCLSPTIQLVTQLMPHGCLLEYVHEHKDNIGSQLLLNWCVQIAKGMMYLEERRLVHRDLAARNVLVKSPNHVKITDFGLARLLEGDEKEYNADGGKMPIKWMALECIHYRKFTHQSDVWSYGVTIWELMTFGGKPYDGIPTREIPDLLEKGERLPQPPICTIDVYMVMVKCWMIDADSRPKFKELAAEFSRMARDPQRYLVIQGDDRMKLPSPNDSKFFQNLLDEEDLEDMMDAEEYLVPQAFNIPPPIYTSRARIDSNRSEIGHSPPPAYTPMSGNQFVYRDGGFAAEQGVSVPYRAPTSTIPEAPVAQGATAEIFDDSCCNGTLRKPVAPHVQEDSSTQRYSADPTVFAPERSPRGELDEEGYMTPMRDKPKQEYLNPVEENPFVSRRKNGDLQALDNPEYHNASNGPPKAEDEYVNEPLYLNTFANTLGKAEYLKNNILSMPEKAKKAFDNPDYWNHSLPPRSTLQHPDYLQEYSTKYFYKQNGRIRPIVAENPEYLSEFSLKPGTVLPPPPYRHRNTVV
Chain of Cathepsin G (Homo sapiens) (P08311 whole entry): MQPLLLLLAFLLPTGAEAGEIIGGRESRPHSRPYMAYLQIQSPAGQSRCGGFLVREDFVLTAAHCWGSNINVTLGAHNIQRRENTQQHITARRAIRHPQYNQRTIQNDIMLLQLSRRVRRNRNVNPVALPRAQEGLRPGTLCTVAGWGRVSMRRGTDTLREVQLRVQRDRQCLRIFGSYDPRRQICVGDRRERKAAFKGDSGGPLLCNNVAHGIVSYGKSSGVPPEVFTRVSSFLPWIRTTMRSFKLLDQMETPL

C[C@@H]1C[C@H]1C(=O)N1CCN(c2cnc(C#N)c(-c3cnn(C)c3)n2)C[C@H]1C
IC50 [1]: > 100 µM | IC50 [2]: > 100 µM | IC50 [3]: > 100 µM | IC50 [4]: > 100 µM | inhibition [5]: 10% | IC50 [6]: > 100 µM | inhibition [7]: 8% | inhibition [8]: 8% | IC50 [9]: > 100 µM | IC50 [10]: > 100 µM | inhibition [11]: -2% | IC50 [12]: > 100 µM | inhibition [13]: 5% | inhibition [14]: 6% | IC50 [15]: > 100 µM | inhibition [16]: 2% | IC50 [17]: > 100 µM | inhibition [18]: 0% | IC50 [19]: > 100 µM | IC50 [20]: > 100 µM | IC50 [21]: > 100 µM | IC50 [22]: > 100 µM | IC50 [23]: > 100 µM | IC50 [24]: > 30 µM | CL free [25]: 187 mL/min/kg

Reference: ChEMBL document CHEMBL4602617, “Discovery and optimization of heteroaryl piperazines as potent and selective PI3Kδ inhibitors” (Bioorg Med Chem Lett, 2020)
